Reference: patent US20250257055A1, “TERTIARY AMIDE DERIVATIVES SUBSTITUTED WITH 4-MEMBERED RING STRUCTURE” (Sumitomo Pharma Co., Ltd., priority 2024, published 2025)
Where two headings read alike, the source gives them in different places.

What was measured:
Kuramochi cells = test: Cell proliferation inhibition experiment using Kuramochi cells; format: cell-based; details: 144 h, cultured for 6 days, CellTiter-Glo
Experimental: Kuramochi cells (derived from ovarian cancer) were obtained from JCRB (Japanese Collection of Research Bioresources) cell bank. Kuramochi cells were cultured in RPMI-1640 medium containing 10% fetal bovine serum and 1% penicillin/streptomycin under conditions of 37° C. and 5% CO2.
(§1) 500 cells per well were seeded in a 384-well plate. One day after seeding, Examples 3, 7, 9, 10, 11, 20, 23 to 25, and 30 to 34 were added so that the final concentration of DMSO was 0.1%, and the cells were cultured for 6 days. After the culture was completed, the cell viability was measured using CellTiter-Glo Luminescent Cell Viability Assay (Promega, G7570).

hDAT = hDAT (Homo sapiens (Human), UniProt Q01959); test: Dopamine receptor inhibitory activity evaluation (binding assay, CHO-S/hDAT membranes); details: CHO-S/hDAT membrane preparation
Experimental: The binding evaluation assay was outsourced to Eurofins. Specifically, CHO-S/hDAT cells were homogenized in an incubation buffer consisting of 50 mmol/L Tris-HCl, pH 7.4, 100 mmol/L NaCl, 1 μmol/L Leupeptin, and 10 μmol/L PMSF. The membrane pellet obtained by centrifugation was resuspended in the incubation buffer to prepare a membrane preparation. The test compound (1-10 μmol/L DMSO solution), the membrane preparation, and 0.15 nmol/L […] were mixed and incubated at 4° C. for 180 minutes. The cell membrane-[^125I]RTI-55 complex was bound to a GF/B filter mat by vacuum filtration and washed with 50 mmol/L Tris-HCl, pH 7.4. The effect on the receptor was assessed by measuring radioactivity using a scintillation counter.

[1] = Pharmacokinetic study in mice; format: in vivo
Experimental: The test compound was administered to 7-week-old female BALB/c (BALB/cAnN CrlCrlj) mice intravenously (dosage: 1 mg/kg) in a 50% PEG solution (0.01 mol/L HCl) or orally (dosage: 10 mg/kg) in a 0.5% methylcellulose aqueous solution, and blood was collected at the following times:
Intravenous administration: 5 min, 15 min, 30 min, 1 hr, 2 hr, 4 hr, 6 hr, and 24 hr after administration
Oral administration: 15 min, 30 min, 1 hr, 2 hr, 4 hr, 6 hr, and 24 hr after administration
The collected blood was centrifuged at 3000 rpm×10 min using a refrigerated centrifuge set at 4° C., and the obtained plasma was measured by LC-MS. A calibration curve was prepared from the value (peak ratio) obtained by dividing the peak area of the test substance by the peak area of the internal standard substance in MS and the concentration of the plasma calibration curve sample. The concentration in the sample was calculated from the peak ratio and the calibration curve of each sample.

RMGI cells = test: Cell proliferation inhibition experiment using RMGI cells; format: cell-based; details: Homo sapiens, RMG-I, 144 h, cultured for 6 days, CellTiter-Glo
Experimental: RMGI cells (derived from ovarian cancer) were obtained from JCRB cell bank. RMGI cells were cultured in Ham's F12 medium containing 10% fetal bovine serum and 1% penicillin/streptomycin under conditions of 37° C. and 5% CO2.
as §1, with “200” for “500”, “20, and” for “20,”, “25” for “25, and 30 to 34”

hSERT = hSERT (Homo sapiens (Human), UniProt P31645); test: Serotonin receptor inhibitory activity evaluation (binding assay, HEK293/hSERT membranes); details: HEK293/hSERT membrane preparation, [3H]Paroxetin
Experimental: The binding evaluation assay was outsourced to Eurofins. Specifically, HEK293/hSERT cells were homogenized in a buffer consisting of 100 mmol/L NaCl, 1 μmol/L Leupeptin, 10 μmol/L PMSF, and 50 mmol/L Tris-HCl (pH7.4). The membrane pellet obtained by centrifugation was resuspended in an incubation buffer consisting of 50 mmol/L Tris-HCl (pH 7.4), 120 mmol/L NaCl, and 5 mmol/L KCl to prepare a membrane preparation. The test compound (1-10 μmol/L DMSO solution), the membrane preparation, and 0.4 nmol/L [^3H]Paroxetin were mixed and incubated at 25° C. for 60 minutes. The cell membrane-[^3H]Paroxetin complex was bound to a GF/B filter mat by vacuum filtration and washed with 50 mmol/L Tris-HCl (pH 7.4). The effect on the receptor was assessed by measuring radioactivity using a scintillation counter.

[2] = Membrane permeability test (PAMPA); format: in vitro ADME
Procedure, shortened: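 Donor compartment held compound in system solution over a GIT Lipid-0 membrane, with sink buffer on the acceptor side; incubation 4 h at 37° C. Donor and acceptor concentrations were read by UV (190-500 nm), or by LC-MS for weakly absorbing compounds, and Pe (10^−6 cm/sec) was calculated.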

recombinant p300 = recombinant p300 (Homo sapiens (Human), UniProt Q09472); test: HAT activity inhibition experiment (SensoLyte HAT(p300) Assay Kit); format: biochemical; details: recombinant p300, histone H3 peptide, acetyl CoA
Procedure, shortened: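 Recombinant human p300 preincubated with compound 10 min at room temperature, then acetyl-CoA and histone H3 peptide added and reacted 30 min at 37 °C. After stop, developer added for 30 min at room temperature in the dark; fluorescence read at Ex 389/Em 513 nm.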

G-401 cells = test: Cell proliferation inhibition experiment using G-401 cells; format: cell-based; details: Homo sapiens, 72 h, cultured for 3 days, CellTiter-Glo
Procedure, shortened: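 Malignant rhabdoid tumor-derived cells, grown in McCoy's 5A with 10% FBS, were seeded at 500 cells/well and dosed one day later (final DMSO 0.1%). After 3 days of culture at 37° C, viability was read by CellTiter-Glo luminescence.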

[3] = female, BALB/c (BALB/cAnN CrlCrlj), mouse, plasma, oral, 10 mg/kg

Chain of recombinant p300 (Q09472 whole entry): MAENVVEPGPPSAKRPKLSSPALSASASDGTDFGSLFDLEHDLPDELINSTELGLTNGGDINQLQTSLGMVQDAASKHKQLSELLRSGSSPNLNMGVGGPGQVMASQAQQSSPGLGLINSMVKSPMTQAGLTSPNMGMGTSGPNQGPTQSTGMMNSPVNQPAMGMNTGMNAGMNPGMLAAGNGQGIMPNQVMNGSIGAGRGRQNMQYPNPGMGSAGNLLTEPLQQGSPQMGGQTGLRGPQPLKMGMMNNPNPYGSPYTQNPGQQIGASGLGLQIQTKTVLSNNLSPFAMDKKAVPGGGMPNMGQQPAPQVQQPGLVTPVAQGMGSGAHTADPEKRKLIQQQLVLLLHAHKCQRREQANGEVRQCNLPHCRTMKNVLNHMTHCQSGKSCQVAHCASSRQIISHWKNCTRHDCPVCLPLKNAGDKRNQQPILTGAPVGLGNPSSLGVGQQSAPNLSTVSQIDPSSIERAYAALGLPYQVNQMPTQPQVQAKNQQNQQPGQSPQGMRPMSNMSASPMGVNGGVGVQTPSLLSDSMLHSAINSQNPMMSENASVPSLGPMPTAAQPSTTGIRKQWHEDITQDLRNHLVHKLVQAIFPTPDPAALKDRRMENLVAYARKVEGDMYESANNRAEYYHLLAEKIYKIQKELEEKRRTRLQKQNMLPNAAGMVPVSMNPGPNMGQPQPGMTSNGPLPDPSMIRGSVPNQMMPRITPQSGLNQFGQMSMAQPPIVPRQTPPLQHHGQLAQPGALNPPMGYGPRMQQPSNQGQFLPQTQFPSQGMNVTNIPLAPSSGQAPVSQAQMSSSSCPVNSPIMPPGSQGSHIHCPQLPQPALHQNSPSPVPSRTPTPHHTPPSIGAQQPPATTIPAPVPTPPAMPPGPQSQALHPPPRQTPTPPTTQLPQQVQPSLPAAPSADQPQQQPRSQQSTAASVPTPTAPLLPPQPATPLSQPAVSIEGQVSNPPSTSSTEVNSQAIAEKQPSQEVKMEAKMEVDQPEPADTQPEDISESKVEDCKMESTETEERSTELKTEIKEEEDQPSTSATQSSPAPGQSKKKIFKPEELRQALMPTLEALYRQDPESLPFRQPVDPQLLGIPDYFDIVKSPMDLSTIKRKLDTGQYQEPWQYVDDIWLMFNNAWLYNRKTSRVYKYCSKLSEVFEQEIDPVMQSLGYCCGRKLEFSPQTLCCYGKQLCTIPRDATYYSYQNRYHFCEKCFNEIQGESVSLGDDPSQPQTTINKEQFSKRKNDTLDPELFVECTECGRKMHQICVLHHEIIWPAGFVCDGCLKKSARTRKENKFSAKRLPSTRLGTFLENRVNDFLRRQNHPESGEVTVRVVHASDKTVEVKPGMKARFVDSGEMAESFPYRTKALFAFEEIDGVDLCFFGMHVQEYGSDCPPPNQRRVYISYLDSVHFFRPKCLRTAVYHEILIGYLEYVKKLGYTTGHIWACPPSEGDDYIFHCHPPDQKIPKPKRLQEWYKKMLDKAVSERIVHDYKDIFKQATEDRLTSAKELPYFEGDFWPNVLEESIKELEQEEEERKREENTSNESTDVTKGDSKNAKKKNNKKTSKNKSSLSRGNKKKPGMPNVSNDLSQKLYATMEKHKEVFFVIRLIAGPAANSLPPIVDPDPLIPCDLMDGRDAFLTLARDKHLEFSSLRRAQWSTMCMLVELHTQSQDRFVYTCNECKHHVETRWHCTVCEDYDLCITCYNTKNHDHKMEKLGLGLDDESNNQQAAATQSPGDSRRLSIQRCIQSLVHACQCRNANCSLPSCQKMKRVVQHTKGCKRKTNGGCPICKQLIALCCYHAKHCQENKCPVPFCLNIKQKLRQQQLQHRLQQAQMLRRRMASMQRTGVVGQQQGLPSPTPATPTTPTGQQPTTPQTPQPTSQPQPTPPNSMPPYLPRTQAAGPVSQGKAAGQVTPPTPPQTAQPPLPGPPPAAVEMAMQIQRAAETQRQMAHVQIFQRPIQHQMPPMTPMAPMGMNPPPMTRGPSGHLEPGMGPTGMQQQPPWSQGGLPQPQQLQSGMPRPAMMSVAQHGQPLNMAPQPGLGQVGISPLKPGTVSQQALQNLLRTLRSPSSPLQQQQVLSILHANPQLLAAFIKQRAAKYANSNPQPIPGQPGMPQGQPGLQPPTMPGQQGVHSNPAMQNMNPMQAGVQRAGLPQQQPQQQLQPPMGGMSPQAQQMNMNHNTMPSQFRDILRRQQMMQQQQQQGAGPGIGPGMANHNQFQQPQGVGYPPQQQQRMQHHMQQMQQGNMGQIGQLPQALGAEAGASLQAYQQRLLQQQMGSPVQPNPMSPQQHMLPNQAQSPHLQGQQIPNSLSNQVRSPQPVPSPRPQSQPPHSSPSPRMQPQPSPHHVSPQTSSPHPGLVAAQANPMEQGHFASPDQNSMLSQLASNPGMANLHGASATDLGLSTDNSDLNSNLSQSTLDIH
Chain of hSERT (P31645 whole entry): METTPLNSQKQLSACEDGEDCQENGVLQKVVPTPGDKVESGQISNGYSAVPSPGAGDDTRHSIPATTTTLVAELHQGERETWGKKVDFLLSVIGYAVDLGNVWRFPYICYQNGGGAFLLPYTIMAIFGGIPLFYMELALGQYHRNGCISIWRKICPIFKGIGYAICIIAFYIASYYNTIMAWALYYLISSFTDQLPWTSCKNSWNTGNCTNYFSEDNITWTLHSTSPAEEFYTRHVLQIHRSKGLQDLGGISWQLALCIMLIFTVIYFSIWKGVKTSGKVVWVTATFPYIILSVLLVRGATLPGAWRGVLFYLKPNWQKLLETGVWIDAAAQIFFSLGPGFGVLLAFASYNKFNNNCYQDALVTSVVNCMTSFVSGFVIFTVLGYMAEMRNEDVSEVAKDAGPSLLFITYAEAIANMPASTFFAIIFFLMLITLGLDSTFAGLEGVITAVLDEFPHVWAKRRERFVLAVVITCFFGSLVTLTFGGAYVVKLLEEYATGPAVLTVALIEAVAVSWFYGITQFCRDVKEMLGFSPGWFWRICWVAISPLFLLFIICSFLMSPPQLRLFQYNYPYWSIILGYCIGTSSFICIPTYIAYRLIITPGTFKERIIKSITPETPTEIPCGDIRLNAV
Chain of hDAT (Q01959 whole entry): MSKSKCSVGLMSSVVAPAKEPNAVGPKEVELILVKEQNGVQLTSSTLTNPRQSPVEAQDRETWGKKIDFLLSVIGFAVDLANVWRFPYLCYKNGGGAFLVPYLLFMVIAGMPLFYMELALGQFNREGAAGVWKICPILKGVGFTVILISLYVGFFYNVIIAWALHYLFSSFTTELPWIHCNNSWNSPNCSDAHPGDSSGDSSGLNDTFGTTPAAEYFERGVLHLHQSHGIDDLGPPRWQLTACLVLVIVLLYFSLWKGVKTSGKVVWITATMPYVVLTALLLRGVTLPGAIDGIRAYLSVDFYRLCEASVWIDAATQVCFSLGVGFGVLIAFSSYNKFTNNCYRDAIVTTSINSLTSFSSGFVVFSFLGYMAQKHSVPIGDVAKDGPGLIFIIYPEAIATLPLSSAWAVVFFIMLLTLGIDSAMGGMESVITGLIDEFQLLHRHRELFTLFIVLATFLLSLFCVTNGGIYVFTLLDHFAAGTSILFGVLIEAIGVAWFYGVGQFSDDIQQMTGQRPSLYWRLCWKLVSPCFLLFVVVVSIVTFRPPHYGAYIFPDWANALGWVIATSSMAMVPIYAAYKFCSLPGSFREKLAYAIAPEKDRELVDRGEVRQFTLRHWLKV

SMILES: CN1CC(N(Cc2ccc(F)cn2)C(=O)CN2C(=O)N[C@]3(C[C@@H](F)c4cc(-c5cnn(CC6COC6)c5)ccc43)C2=O)(C(F)(F)F)C1 [Example 25, 2-[(1′S,3′R)-3′-fluoro-5′-{1-[(oxetan-3-yl)methyl]-1H-pyrazol-4-yl}-2,5-dioxo-2′,3′-dihydrospiro[imidazolidine-4,1′-inden]-1-yl]-N-[(5-fluoropyridin-2-yl)methyl]-N-[1-methyl-3-(trifluoromethyl)azetidin-3-yl]acetamide]
- IC50 (Kuramochi cells): 424 nM
- inhibition at 10 µM (hDAT): 9%
- AUC ([1]; female, BALB/c (BALB/cAnN CrlCrlj), mouse, plasma, intravenous, 1 mg/kg): 672 ng·h/mL
- AUC [1, 3]: 1310 ng·h/mL
- Cmax [1, 3]: 1630 ng/mL
- BA ([1]; oral, 10 mg/kg): 19.6%
- IC50 (RMGI cells): 41 nM
- inhibition at 10 µM (hSERT): 2%
- Papp at 4 h ([2]; pH 5.0, 37° C., read-out: pH 5.0 Pe): 1 ×10⁻⁶ cm/s
- Papp at 4 h ([2]; pH 7.4, 37° C., read-out: pH 7.4 Pe): 6.1 ×10⁻⁶ cm/s
- IC50 (recombinant p300): 5.7 nM
- IC50 (G-401 cells): 59 nM
